The record followed here is patent publication US20100137294A1, “COMPOUNDS, COMPOSITIONS AND METHODS FOR CONTROLLING INVERTEBRATE PESTS” (GENETIC TECHNOLOGIES LIMITED, priority 2006, published 2010).

The first data set has as its system H. contortus L3 larvae. As to the kind of experiment: Testing compounds on H. contortus L3 larvae (96-well microplate larval kill assay). Format: cell-based, Haemonchus contortus. Particulars: secondary screening, sequential ten-fold dilutions of 5 mM down to 0.5. How it is done: The L3 stage of H. contortus was collected from the faeces of experimentally infected sheep and stored in water at room temperature until needed. A stock solution of each compound was prepared by suspending the compound in 100% dimethyl sulphoxide (DMSO) to a final concentration of 100 mM.
For this set of experiments, Trichostrongylus vitrinus (T. vitrinus) L3 larvae were used as positive controls by testing with the compounds identified in previous experiments as being able to kill all larvae. Approximately 50 L3 larvae of each species were added, in 95 μl of water, to the wells of a 96-well microtitre plate. All compounds were tested initially at a concentration of 5 mM by adding 5 μl of inhibitor in 100% DMSO.
The plates were incubated overnight at room temperature (RT). Plates were viewed under a binocular microscope and the compounds showing 100% kill of H. contortus larvae were determined. Concentrations above 5 mM were not tested as DMSO alone kills larvae when the proportion exceeds 5% of the total volume. Many of the compounds are predicted to have limited solubility in aqueous solution, thus requiring the presence of organic solvent. Additional controls included wells with and without various concentrations of DMSO alone.
Eight inhibitors, from the primary screening, appeared to kill 90-100% of H. contortus L3 larvae at a concentration of 5 mM. […]
As for `O=C1C2C(C(=O)N1CCO)[C@H]1CC[C@@H]2O1` (some centres unmarked) [Compound 15, N-Ethyl alcohol-7-Oxabicyclo(2.2.1)heptane-2,3-dicarboximide], the “killing of H. contortus L3 larvae across the dilution series” value is “killed the larvae at the highest and lowest concentrations used”.

For another data set, the system named is T. vitrinus L3 larvae. As to the kind of experiment: Testing of compounds on T. vitrinus L3 larvae (96-well microplate larval kill assay). Format: cell-based, Trichostrongylus vitrinus. Particulars: primary screening, 5 mM compound, 5% DMSO, overnight RT. The protocol: The ability of the compounds to kill T. vitrinus L3 larvae was tested. The L3 stage is encased in a sheath, which protects the larva from external stresses such as desiccation and chemicals. This makes it more difficult to kill this part of the lifecycle with chemotherapeutic agents. The tests will determine which compounds can kill this lifestage, therefore defining which compounds can penetrate through the sheath and subsequently kill the larva.
The L3 stage of T. vitrinus were collected and stored in water at 4° C. until needed. Each compound was suspended in 100% dimethyl sulphoxide (DMSO) to a final concentration of 100 mM.
Around fifty L3 larvae were added, in 95 μl of water, to the wells of a 96-well microtitre plate. The plate was incubated overnight RT. Plates were viewed under a binocular microscope and the proportion of dead L3 larvae in the controls and each treatment were scored. Concentrations above 5 mM were not tested as DMSO alone kills larvae when the proportion exceeds 5% of the total volume. Many of the compounds are predicted to have limited solubility in aqueous solution, thus requiring the presence of organic solvent. The appropriate controls included wells with and without various concentrations of DMSO alone.
Three compounds ((4), (10) and (20)) could also kill 100% of larvae exposed at 0.5 mM.
On to `CCCCCCCCN1C(=O)C2C3CCC(O3)C2C1=O` (centres unmarked) [Compound 6, N-octyl-7-Oxabicyclo(2.2.1)heptane-2,3-dicarboximide], for which the “% of T. vitrinus L3 larvae killed” value was determined as 100%.

`CCCN1C(=O)C2C(C1=O)[C@H]1CC[C@@H]2O1` (some centres unmarked) [Compound 4, N-propyl-7-Oxabicyclo(2.2.1)heptane-2,3-dicarboximide]: the “% of T. vitrinus L3 larvae killed” value was 100%.

For the molecule `CCCCCCCCCCN1C(=O)C2C3CCC(O3)C2C1=O` (centres unmarked) [Compound 7, N-decyl-7-Oxabicyclo(2.2.1)heptane-2,3-dicarboximide], the “% of T. vitrinus L3 larvae killed” value was 100%.

For the molecule `CCCCN1C(=O)C2C3CCC(O3)C2C1=O` (centres unmarked) [Compound 5, N-butyl-7-Oxabicyclo(2.2.1)heptane-2,3-dicarboximide], the “% of T. vitrinus L3 larvae killed” value came to 100%.

Regarding `O=C(O)C1C(C(=O)NCCN2CCOCC2)[C@H]2CC[C@@H]1O2` (some centres unmarked) [Compound 12, 3-(Ethylmorpholinecarbamoyl)-7-Oxabicyclo(2.2.1)heptane-2-carboxylic acid], the “% of T. vitrinus L3 larvae killed” value was determined as 100%.

As to `O=C(O)C(Cc1ccc(O)cc1)N1C(=O)C2C(C1=O)[C@H]1CC[C@@H]2O1` (some centres unmarked) [Compound 19], the “% of T. vitrinus L3 larvae killed” value was 100%.

Take `O=C1NC(=O)C2C1[C@@H]1CC[C@H]2O1` (stereo partly drawn) [Compound 20, exo-7-Oxabicyclo(2.2.1)heptane-2,3-dicarboximide]: the “% of T. vitrinus L3 larvae killed” value is given as 100%.

The data set is the same for the next values; noted with them: secondary screening, serial ten-fold dilutions, 0.5 mM.
In the case of `CCCN1C(=O)C2C(C1=O)[C@H]1CC[C@@H]2O1` (some centres unmarked) [Compound 4, N-propyl-7-Oxabicyclo(2.2.1)heptane-2,3-dicarboximide], the “% of T. vitrinus L3 larvae killed” value is 100%.

`O=C1NC(=O)C2C1[C@@H]1CC[C@H]2O1` (stereo partly drawn) [Compound 20, exo-7-Oxabicyclo(2.2.1)heptane-2,3-dicarboximide]: the “% of T. vitrinus L3 larvae killed” value was 100%.

System in the next data set: not given
Assay: not given
Conditions: not given
Turning to `C=CCNC(=O)C1C(C(=O)O)[C@@H]2CC[C@H]1O2` (stereo in doubt), the melting point (in general, the temperature of the solid-liquid transition) lay within 105 to 107 °C.

Turning to `Nc1ccccc1CC12CCC(O1)C1C(=O)NC(=O)C12` (centres unmarked), the melting point was 159 to 160 °C.

`O=C1NC(=O)C2C1C1CCC2(CCCO)O1` (centres unmarked) returned a melting point of 164 to 166 °C.

`O=C(O)CCCCCCCNC(=O)C1C(C(=O)O)[C@@H]2CC[C@H]1O2` (stereo in doubt) [Compound 18, 3-(7-Carboxyheptylcarbamoyl)-7-oxabicyclo[2.2.1]heptane-2-carboxylic acid] registered a melting point of 125 to 126 °C.

On to `CC(C)(C)c1ccccc1NC(=O)C1C(C(=O)O)[C@@H]2CC[C@H]1O2` (some centres unmarked), for which the melting point lay in the range of 163 to 164 °C.

`O=C(O)CCCCCN1C(=O)C2C(C1=O)[C@H]1CC[C@@H]2O1` (some centres unmarked) [Compound 14, N-Hexanoic acid-7-Oxabicyclo(2.2.1)heptane-2,3-dicarboximide]: the melting point is 110 to 112 °C.

In turn, `CCC(C)C12CCC(O1)C1C(=O)NC(=O)C12` (centres unmarked) had a melting point of 44 to 46 °C.

In turn, `COC(CO)CN1C(=O)[C@@H]2[C@H](C1=O)[C@H]1CC[C@@H]2O1` (some centres unmarked) [Compound 16, N-2-Methoxypropyl-1-ol-7-Oxabicyclo(2.2.1)heptane-2,3-dicarboximide] came in with a melting point of 96 to 97 °C.

For `O=C(O)CCCN1C(=O)C2C(C1=O)[C@H]1CC[C@@H]2O1` (some centres unmarked) [Compound 13, N-Butanoic acid-7-Oxabicyclo(2.2.1)heptane-2,3-dicarboximide], the melting point lay within 162 to 164 °C.

`CCc1ccccc1NC(=O)C1C(C(=O)O)[C@@H]2CC[C@H]1O2` (stereo in doubt) came in with a melting point of 171 to 172 °C.

For `O=C1C2C(C(=O)N1CCO)[C@H]1CC[C@@H]2O1` (some centres unmarked) [Compound 15, N-Ethyl alcohol-7-Oxabicyclo(2.2.1)heptane-2,3-dicarboximide], the melting point lay within 164 to 166 °C.

Molecule `O=C1NC(=O)C2C1C1CCC2(CCCCCCO)O1` (centres unmarked) showed a melting point of 56 to 57 °C.

Consider `CCC12CCC(O1)C1C(=O)NC(=O)C12` (centres unmarked), for which the melting point was in the range of 166 to 169 °C.

In turn, `O=C1NC(=O)C2C1C1CCC2(c2ccc([N+](=O)[O-])cc2)O1` (centres unmarked) showed a melting point of 207 to 209 °C.

Regarding `O=C1NC(=O)C2C1C1CCC2(c2ccccc2)O1` (centres unmarked), the melting point lay in the range of 171 to 172 °C.

`COc1ccc(CC23CCC(O2)C2C(=O)NC(=O)C23)cc1OC` (centres unmarked) gave a melting point of 155 to 157 °C.

`CN(C)CCOc1ccccc1N1C(=O)C2C(C1=O)[C@H]1CC[C@@H]2O1` (some centres unmarked) [Compound 79, 4,{2,[2-(Dimethylamino)ethoxy]phenyl}-10-oxa-4-azatricyclo[5.2.1]decane-3,5-dione]: the melting point lay within 113 to 115 °C.

As to `CCCCCCCCCCNC(=O)C1C(C(=O)O)[C@@H]2CC[C@H]1O2` (stereo in doubt), the melting point is 110 to 111 °C.

With `O=C(O)c1ccc(NC(=O)C2C(C(=O)O)[C@@H]3CC[C@H]2O3)cc1Cl` (stereo in doubt), the melting point was in the range of 216 to 217 °C.

Molecule `O=C1NC(=O)C2C1C1CCC2(N2CCOCC2)O1` (centres unmarked) returned a melting point of 169 to 171 °C.

For the molecule `CCCCCCCCCCCCCCCCCCC12CCC(O1)C1C(=O)NC(=O)C12` (centres unmarked), the melting point lay within 62 to 64 °C.

As for `O=C(O)C1C(C(=O)N2CCCCC2)[C@H]2CC[C@@H]1O2` (some centres unmarked), the melting point was in the range of 140 to 142 °C.

`O=C(O)C1C(C(=O)NCC2OCCc3sccc32)[C@H]2CC[C@@H]1O2` (some centres unmarked) [Compound 81, 3,[(6,7-Dihydro-4H-thieno[3,2-c]pyran-4-yl)methylcarbamoyl]-7-oxabicyclo[2.2.1]heptane-2-carboxylic acid]: the melting point is 159 to 160 °C.

With `CCCCCCCCNC(=O)C1C(C(=O)O)[C@@H]2CC[C@H]1O2` (stereo in doubt), the melting point was 131 °C.

For `C=CCCN1C(=O)C2C(C1=O)[C@H]1CC[C@@H]2O1` (some centres unmarked), the melting point lay in the range of 64 to 65 °C.

The molecule `COc1ccc(CC23CCC(O2)C2C(=O)NC(=O)C23)cc1` (centres unmarked) came in with a melting point of 83 to 85 °C.

In turn, `O=C1C2C(C(=O)N1c1ncccc1OCc1ccccc1)[C@H]1CC[C@@H]2O1` (some centres unmarked) [Compound 77, 3-[3-(Benzyloxy)pyridin-2-yl]-10-oxa-4-azatricyclo[5.2.1]decane-3,5-dione] returned a melting point of 99 to 102 °C.

In turn, `O=C(O)C1C(C(=O)NC2CCN(Cc3ccccc3)CC2)[C@H]2CC[C@@H]1O2` (stereo in doubt) came in with a melting point of 124 to 125 °C.

Take `CC(C)(CO)C12CCC(O1)C1C(=O)NC(=O)C12` (centres unmarked): the melting point lay in the range of 134 to 136 °C.

In turn, `O=C1NC(=O)C2C1C1CCC2(C2CCCCC2)O1` (centres unmarked) registered a melting point of 97 to 99 °C.

The molecule `CCCCCCCCCCCCC12CCC(O1)C1C(=O)NC(=O)C12` (centres unmarked) gave a melting point of 35 to 37 °C.

`CC(CO)C12CCC(O1)C1C(=O)NC(=O)C12` (centres unmarked) registered a melting point of 104 to 107 °C.

Molecule `Cn1ccc2c(CNC(=O)C3C(C(=O)O)[C@@H]4CC[C@H]3O4)cccc21` (stereo in doubt) [Compound 80, 3-[(1-Methyl-1H-indol-4-yl)methylcarbamoyl]-7-oxabicyclo[2.2.1]heptane-2-carboxylic acid] came in with a melting point of 161 °C.

`CCCCCCCCCCCCCCC12CCC(O1)C1C(=O)NC(=O)C12` (centres unmarked) had a melting point of 45 to 46 °C.

The molecule `CN(C)CCOc1ccc(N2C(=O)C3C(C2=O)[C@H]2CC[C@@H]3O2)cc1` (some centres unmarked) gave a melting point of 145 to 146 °C.

`CCCCN(C(=O)C1C2CCC(O2)C1C(=O)O)c1ccccc1` (centres unmarked) registered a melting point of 105 to 107 °C.

Molecule `C=CCC12CCC(O1)C1C(=O)NC(=O)C12` (centres unmarked) yielded a melting point of 116 to 117 °C.
